Measured values: ChEMBL document CHEMBL2375328, “Synthetic oligoureas of metaphenylenediamine mimic host defence peptides in their antimicrobial behaviour” (Bioorg Med Chem Lett, 2013)
Values after ≈ are worked out from the molar mass of the structure shown. Active and inactive are the calls of the source. The calls are words filed in the database; no cut-off is given here.

How the values were obtained:
Staphylococcus aureus [1] = experiment: Antimicrobial activity against Staphylococcus aureus; format: functional
Escherichia coli [2] = experiment: Antimicrobial activity against Escherichia coli; format: functional
[3] = Induction of dimyristoyl phosphatidylglycerol membrane lysis assessed as calcein leakage at 1 mM by spectrofluorometric analysis relative to control; format: physicochemical; conditions: 1000 µM
[4] = Induction of dimyristoyl phosphatidylglycerol membrane lysis assessed as calcein leakage by spectrofluorometric analysis; format: physicochemical
[5] = Induction of dimyristoyl phosphatidylethanolamine membrane lysis assessed as calcein leakage at 250 to 500 uM by spectrofluorometric analysis; format: physicochemical
[6] = Induction of dimyristoyl phosphatidylethanolamine membrane lysis assessed as calcein leakage at 1 mM by spectrofluorometric analysis; format: physicochemical; conditions: 1000 µM
[7] = Destabilization of dimyristoyl phosphatidylethanolamine membrane; format: physicochemical
[8] = Induction of dimyristoyl phosphatidylglycerol membrane lysis assessed as calcein leakage at 250 uM to 1 mM by spectrofluorometric analysis; format: physicochemical
Staphylococcus aureus [9] = experiment: Antimicrobial activity against Staphylococcus aureus up to 2 mM; format: functional, organism-based
Escherichia coli [10] = experiment: Antimicrobial activity against Escherichia coli up to 2 mM; format: functional, organism-based
[11] = Destabilization of dimyristoyl phosphatidylglycerol membrane; format: physicochemical

Row | MIC (Staphylococcus aureus [1]) [µM] | MIC (Escherichia coli [2]) [µM] | Activity [3] [%] | Activity [4] | Activity [5] | Activity [6] | Activity [7] | Activity [8] | Activity [11] | Compound | Activity (Staphylococcus aureus [9]) | Activity (Escherichia coli [10])
1 | 1000 (≈ 1300 µg/mL) | 1000 (≈ 1300 µg/mL) | 69 | Dose-dependent effect | Not Active | Active | Active | Active |  | CC(C)c1ccccc1N(C)C(=O)N(C)c1cccc(N(C)C(=O)N(C)c2cccc(N(C)C(=O)N(C)c3cccc(N(C)C(=O)N(C)c4cccc(N(C)C(=O)N(C)c5cccc(N(C)C(=O)N(C)c6cccc(N(C)C(=O)N(C)c7ccccc7C(C)C)c6)c5)c4)c3)c2)c1 |  | 
2 | 1000 (≈ 811 µg/mL) | 1000 (≈ 811 µg/mL) | 61 | Dose-dependent effect | Not Active | Active | Active | Active |  | CC(C)c1ccccc1N(C)C(=O)N(C)c1cccc(N(C)C(=O)N(C)c2cccc(N(C)C(=O)N(C)c3cccc(N(C)C(=O)N(C)c4ccccc4C(C)C)c3)c2)c1 |  | 
3 |  |  |  | Dose-dependent effect | Not Active | Active | Not Active | Active | Active | CC(C)c1ccccc1N(C)C(=O)N(C)c1ccccc1C(C)C | inactive | inactive
